Several values for one entry are separate records, joined by “and”; a condition that tells them apart may be missing. Equal entries are not always repeated. Toxic doses and inconclusive results are not listed.
System: BDF1 mice, P388 leukemia ip, median survival T/C
Assay: NCI In Vivo Anticancer Drug Screen. Data for tumor model P388 Leukemia (intraperitoneal) in B6D2F1 (BDF1) mice
Conditions: endpoint: median survival time, higher = longer survival
In short: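 Steps: implant the tumour, treat one group with compound and another with vehicle, record survival, then divide treated by control.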

[1] = dose: 100.0 mg/kg/injection, schedule: Q01DX009 (ip), vehicle: saline with Tween-80
[2] = dose: 100.0 mg/kg/injection, schedule: Q04DX003 (ip), vehicle: saline with Tween-80
[3] = dose: 200.0 mg/kg/injection, schedule: Q01DX009 (ip), vehicle: saline with Tween-80
[4] = dose: 200.0 mg/kg/injection, schedule: Q04DX003 (ip), vehicle: saline with Tween-80
[5] = dose: 400.0 mg/kg/injection, schedule: Q01DX009 (ip), vehicle: saline with Tween-80
[6] = dose: 400.0 mg/kg/injection, schedule: Q04DX003 (ip), vehicle: saline with Tween-80
[7] = dose: 50.0 mg/kg/injection, schedule: Q01DX009 (ip), vehicle: saline with Tween-80
[8] = dose: 100.0 mg/kg/injection, schedule: Q01DX001 (ip), vehicle: saline with Tween-80
[9] = dose: 200.0 mg/kg/injection, schedule: Q01DX001 (ip), vehicle: saline with Tween-80
[10] = dose: 400.0 mg/kg/injection, schedule: Q01DX001 (ip), vehicle: saline with Tween-80

For `COCC(O)Cn1ccnc1[N+](=O)[O-]` (centres undefined), the T/C (dose: 540.0 mg/kg/injection, schedule: Q01DX001 (ip), vehicle: saline) was 104 % of control, the T/C (dose: 600.0 mg/kg/injection, schedule: Q01DX001 (ip), vehicle: saline) was 92 % of control and 101 % of control and the T/C (dose: 900.0 mg/kg/injection, schedule: Q01DX001 (ip), vehicle: saline) was 107 % of control. For the same compound, the T/C (dose: 1000.0 mg/kg/injection, schedule: Q01DX001 (ip), vehicle: saline) was 99 % of control and the T/C (dose: 1500.0 mg/kg/injection, schedule: Q01DX001 (ip), vehicle: saline) was 104 % of control.

For `N#C/C(C(=N)c1ccccc1)=C1\SS/C(=C(\C#N)C(=N)c2ccccc2)S1`, the T/C (dose: 1.5 mg/kg/injection, schedule: Q01DX009 (ip), vehicle: saline with Tween-80) was 101 % of control.

In the case of `CCN(O)C(N)=O`, the T/C [1] is reported as 108 % of control, the T/C [2] is reported as 96 % of control and 104 % of control and the T/C [3] is reported as 100 % of control. The T/C [4] was 88 % of control and 91 % of control, the T/C [5] was 100 % of control and the T/C [6] was 96 % of control and 100 % of control.

For `CN(C)/N=N/c1nc(Cc2ccccc2)[nH]c1C(N)=O`, the T/C (dose: 177.0 mg/kg/injection, schedule: Q01DX009 (ip), vehicle: saline with Tween-80) was 100 % of control, the T/C (dose: 266.0 mg/kg/injection, schedule: Q01DX009 (ip), vehicle: saline with Tween-80) was 154 % of control and the T/C [5] was 150 % of control. The T/C (dose: 600.0 mg/kg/injection, schedule: Q01DX009 (ip), vehicle: saline with Tween-80) was 195 % of control.

In the case of `CC1=C2CC(C)(C)/C=C\C(=O)/C(C)=C\C3=C[C@H](C)C[C@]3(O2)C1=O`, the T/C (dose: 0.5 mg/kg/injection, schedule: Q01DX010 (ip), vehicle: carboxymethylcellulose (CMC)) is reported as 100 % of control, the T/C (dose: 1.0 mg/kg/injection, schedule: Q01DX010 (ip), vehicle: carboxymethylcellulose (CMC)) is reported as 100 % of control and the T/C (dose: 2.0 mg/kg/injection, schedule: Q01DX010 (ip), vehicle: carboxymethylcellulose (CMC)) is reported as 100 % of control. The T/C (dose: 4.0 mg/kg/injection, schedule: Q01DX010 (ip), vehicle: carboxymethylcellulose (CMC)) was 104 % of control and the T/C (dose: 8.0 mg/kg/injection, schedule: Q01DX010 (ip), vehicle: carboxymethylcellulose (CMC)) was 95 % of control.

With `C=CC[NH-].C=CC[NH-].CC(=O)CC(C)=O.CC(=O)CC(C)=O.[Ni+2]` the T/C (dose: 6.25 mg/kg/injection, schedule: Q04DX002 (ip), vehicle: saline) was 107 % of control, the T/C (dose: 12.5 mg/kg/injection, schedule: Q04DX002 (ip), vehicle: saline) was 100 % of control and the T/C (dose: 25.0 mg/kg/injection, schedule: Q04DX002 (ip), vehicle: saline) was 117 % of control.

`COc1ccc(/C=N/Nc2nc3ccc4ccccc4c3s2)cc1` was tested, and the T/C [7] was 90 % of control, the T/C [1] was 101 % of control and the T/C [3] was 115 % of control.

In the case of `CN(C)CCCNC1=CC(=O)c2ccccc2C1=O`, the T/C (dose: 1.56 mg/kg/injection, schedule: Q04DX003 (ip), vehicle: water) is reported as 108 % of control, the T/C (dose: 3.12 mg/kg/injection, schedule: Q04DX003 (ip), vehicle: water) is reported as 97 % of control and 98 % of control and the T/C (dose: 6.25 mg/kg/injection, schedule: Q01DX009 (ip), vehicle: water) is reported as 99 % of control. The T/C (dose: 6.25 mg/kg/injection, schedule: Q04DX003 (ip), vehicle: water) was 91 % of control and 101 % of control, the T/C (dose: 12.5 mg/kg/injection, schedule: Q01DX009 (ip), vehicle: water) was 103 % of control and the T/C (dose: 12.5 mg/kg/injection, schedule: Q04DX003 (ip), vehicle: water) was 97 % of control and 102 % of control. For the same compound, the T/C (dose: 25.0 mg/kg/injection, schedule: Q01DX009 (ip), vehicle: water) was 110 % of control, the T/C (dose: 25.0 mg/kg/injection, schedule: Q04DX003 (ip), vehicle: water) was 103 % of control and 119 % of control and the T/C (dose: 50.0 mg/kg/injection, schedule: Q01DX009 (ip), vehicle: water) was 94 % of control. The T/C (dose: 50.0 mg/kg/injection, schedule: Q04DX003 (ip), vehicle: water) was 91 % of control and the T/C (dose: 100.0 mg/kg/injection, schedule: Q01DX009 (ip), vehicle: water) was 103 % of control.

For `OC(CNc1ccc(Cl)cc1)COc1ccc(Cl)cc1Cl` (centres undefined), the T/C (dose: 50.0 mg/kg/injection, schedule: Q01DX009 (ip), vehicle: Klucel (hydroxypropylcellulose) (HPC)) was 100 % of control, the T/C (dose: 100.0 mg/kg/injection, schedule: Q01DX009 (ip), vehicle: Klucel (hydroxypropylcellulose) (HPC)) was 101 % of control and the T/C (dose: 200.0 mg/kg/injection, schedule: Q01DX009 (ip), vehicle: Klucel (hydroxypropylcellulose) (HPC)) was 102 % of control.

In the case of `Cc1ccc(CC2c3ccccc3Nc3ccccc32)cc1`, the T/C [8] is reported as 86 % of control, the T/C [9] is reported as 86 % of control and the T/C [10] is reported as 88 % of control.

`O=C1CN=C(c2ccc[nH]2)c2cc(Cl)ccc2N1` was tested, and the T/C (dose: 25.0 mg/kg/injection, schedule: Q01DX009 (ip), vehicle: saline with Tween-80) was 118 % of control, the T/C (dose: 45.0 mg/kg/injection, schedule: Q01DX009 (oral), vehicle: saline) was 104 % of control and the T/C [7] was 100 % of control. The T/C (dose: 50.0 mg/kg/injection, schedule: Q01DX009 (ip), vehicle: saline) was 97 % of control, the T/C (dose: 65.0 mg/kg/injection, schedule: Q01DX009 (oral), vehicle: saline) was 100 % of control and the T/C [8] was 95 % of control. For the same compound, the T/C (dose: 100.0 mg/kg/injection, schedule: Q01DX001 (oral), vehicle: saline with Tween-80) was 90 % of control, the T/C [1] was 118 % of control and the T/C (dose: 100.0 mg/kg/injection, schedule: Q01DX009 (ip), vehicle: saline) was 105 % of control. The T/C (dose: 100.0 mg/kg/injection, schedule: Q01DX009 (oral), vehicle: saline with Tween-80) was 95 % of control, the T/C [9] was 104 % of control and the T/C (dose: 200.0 mg/kg/injection, schedule: Q01DX001 (oral), vehicle: saline with Tween-80) was 86 % of control. For the same compound, the T/C [3] was 118 % of control, the T/C (dose: 200.0 mg/kg/injection, schedule: Q01DX009 (ip), vehicle: saline) was 97 % of control and the T/C (dose: 200.0 mg/kg/injection, schedule: Q01DX009 (oral), vehicle: saline with Tween-80) was 104 % of control. The T/C [10] was 90 % of control, the T/C (dose: 400.0 mg/kg/injection, schedule: Q01DX001 (oral), vehicle: saline with Tween-80) was 95 % of control and the T/C [5] was 163 % of control. For the same compound, the T/C (dose: 400.0 mg/kg/injection, schedule: Q01DX009 (ip), vehicle: saline) was 103 % of control, the T/C (dose: 800.0 mg/kg/injection, schedule: Q01DX001 (ip), vehicle: saline with Tween-80) was 109 % of control and the T/C (dose: 800.0 mg/kg/injection, schedule: Q01DX001 (oral), vehicle: saline with Tween-80) was 100 % of control.

In the case of `Cc1nc2ccc(O)cc2cc1CBr`, the T/C (dose: 6.25 mg/kg/injection, schedule: Q01DX009 (ip), vehicle: saline) is reported as 94 % of control and 105 % of control and 106 % of control, the T/C (dose: 6.25 mg/kg/injection, schedule: Q04DX003 (ip), vehicle: saline) is reported as 98 % of control and the T/C (dose: 12.5 mg/kg/injection, schedule: Q01DX009 (ip), vehicle: saline) is reported as 101 % of control and 113 % of control and 118 % of control. For the same compound, the T/C (dose: 12.5 mg/kg/injection, schedule: Q04DX003 (ip), vehicle: saline) was 107 % of control, the T/C (dose: 25.0 mg/kg/injection, schedule: Q01DX009 (ip), vehicle: saline) was 112 % of control and 119 % of control and the T/C (dose: 25.0 mg/kg/injection, schedule: Q04DX003 (ip), vehicle: saline) was 107 % of control. For the same compound, the T/C (dose: 40.0 mg/kg/injection, schedule: Q01DX009 (ip), vehicle: saline) was 103 % of control and the T/C (dose: 50.0 mg/kg/injection, schedule: Q04DX003 (ip), vehicle: saline) was 107 % of control.

In the case of `CC(=O)O/C(C#N)=C1\CCCC\C1=C(\C#N)OC(C)=O`, the T/C (dose: 25.0 mg/kg/injection, schedule: Q01DX001 (ip), vehicle: saline with Tween-80) is reported as 103 % of control.

In the case of `CN1C(=O)Cc2[nH]ccc2C1=O`, the T/C (dose: 3.13 mg/kg/injection, schedule: Q04DX003 (ip), vehicle: saline with Tween-80) is reported as 106 % of control, the T/C (dose: 6.25 mg/kg/injection, schedule: Q04DX003 (ip), vehicle: saline with Tween-80) is reported as 109 % of control and the T/C (dose: 12.5 mg/kg/injection, schedule: Q04DX003 (ip), vehicle: saline with Tween-80) is reported as 119 % of control and 120 % of control. The T/C (dose: 25.0 mg/kg/injection, schedule: Q04DX003 (ip), vehicle: saline with Tween-80) was 118 % of control.

In the case of `CC1(C)O[C@]2(C)CC[C@@H]1[C@H]1O[C@@H]12`, the T/C (dose: 50.0 mg/kg/injection, schedule: Q01DX005 (ip), vehicle: saline) is reported as 102 % of control, the T/C (dose: 100.0 mg/kg/injection, schedule: Q01DX005 (ip), vehicle: saline) is reported as 100 % of control and the T/C (dose: 200.0 mg/kg/injection, schedule: Q01DX005 (ip), vehicle: saline) is reported as 102 % of control.

In the case of `CCCCCCCCCCCCOc1ccc(C)cc1`, the T/C [2] is reported as 109 % of control, the T/C [4] is reported as 100 % of control and the T/C [6] is reported as 100 % of control.
